According to PubChem BioAssay (NCI):
Values joined by “and” are separate entries in the source; they are usually repeats but may differ in a detail not shown here. Equal values may be shown once.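 All cell lines were grown in 96-well plates and treated with compound for 48 hours. Abbreviation: GI50, concentration required for 50% inhibition of growth. TGI is the concentration that stops growth completely.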

Tests used:
Test in all cases: inhibition of tumour cell growth, NCI panel, 48 h
CAKI-1 renal = system: CAKI-1 renal
T-47D breast = system: T-47D breast
BT-549 breast = system: BT-549 breast
NCI-H522 lung = system: NCI-H522 lung
NCI/ADR-RES ovarian = system: NCI/ADR-RES ovarian
SF-295 CNS = system: SF-295 CNS
SF-539 CNS = system: SF-539 CNS
SK-OV-3 ovarian = system: SK-OV-3 ovarian
LOX IMVI melanoma = system: LOX IMVI melanoma
OVCAR-8 ovarian = system: OVCAR-8 ovarian

## Cc1ccc(-c2cc(C(Cl)Cl)on2)cc1
CAKI-1 renal
  GI50: 43.8 µM
  TGI: > 100 µM
T-47D breast
  GI50: 35.3 µM
  TGI: > 100 µM
BT-549 breast
  GI50: > 100 µM
  TGI: > 100 µM
NCI-H522 lung
  GI50: 48.5 µM
  TGI: > 100 µM
NCI/ADR-RES ovarian
  GI50: 44.9 µM
  TGI: > 100 µM
SF-295 CNS
  GI50: 60 µM
  TGI: > 100 µM
SF-539 CNS
  GI50: > 100 µM
  TGI: > 100 µM
SK-OV-3 ovarian
  GI50: > 100 µM
  TGI: > 100 µM
LOX IMVI melanoma
  GI50: 41.1 µM
  TGI: > 100 µM
OVCAR-8 ovarian
  GI50: > 100 µM
  TGI: > 100 µM

## CCCCCCCCCCCCNC(=O)[C@H]1CSC(c2ccsc2)N1 (some centres undefined)
CAKI-1 renal
  GI50: 0.898 µM
  TGI: 1.6 µM
T-47D breast
  GI50: 0.976 µM
  TGI: 2.02 µM
BT-549 breast
  GI50: 0.797 µM
  TGI: 1.58 µM
NCI-H522 lung
  GI50: 5.14 µM
  TGI: 11.8 µM
NCI/ADR-RES ovarian
  GI50: 1.23 µM
  TGI: 2.56 µM
SF-295 CNS
  GI50: 0.926 µM
  TGI: 1.68 µM
SF-539 CNS
  GI50: 0.902 µM
  TGI: 1.7 µM
SK-OV-3 ovarian
  GI50: 0.955 µM
  TGI: 1.66 µM
LOX IMVI melanoma
  GI50: 0.824 µM
  TGI: 1.64 µM
OVCAR-8 ovarian
  GI50: 1.11 µM
  TGI: 2.26 µM

## COc1ccc(-c2nn(-c3cccc(Cl)c3)cc2/C=C2\C(=N)N(c3ccccc3)N=C2N)cc1
CAKI-1 renal
  GI50: 0.229 µM
  TGI: 0.844 µM
T-47D breast
  GI50: 1.81 µM
  TGI: > 100 µM
BT-549 breast
  GI50: 5.75 µM
  TGI: 39.2 µM
NCI-H522 lung
  GI50: 0.916 µM
  TGI: 23 µM
NCI/ADR-RES ovarian
  GI50: 1.32 µM
  TGI: > 48.9 µM
SF-295 CNS
  GI50: 0.271 µM
  TGI: 2.83 µM
SF-539 CNS
  GI50: 0.617 µM
  TGI: 3.52 µM
SK-OV-3 ovarian
  GI50: 34.7 µM
  TGI: > 100 µM
LOX IMVI melanoma
  GI50: 0.337 µM
  TGI: 4.58 µM
OVCAR-8 ovarian
  GI50: 1.12 µM
  TGI: > 100 µM

## NCCn1c2c(c3ccccc3c1=O)C(=O)c1ccccc1-2
CAKI-1 renal
  GI50: 0.129 µM
  TGI: 0.887 µM
T-47D breast
  GI50: 0.308 µM
  TGI: 1.28 µM
BT-549 breast
  GI50: 2.42 µM
  TGI: 10.1 µM
NCI-H522 lung
  GI50: 1.24 µM
  TGI: > 21.7 µM
NCI/ADR-RES ovarian
  GI50: 0.647 µM
  TGI: 3.3 µM
SF-295 CNS
  GI50: 0.315 µM
  TGI: 1.48 µM
SF-539 CNS
  GI50: 0.211 µM
  TGI: 1.06 µM
SK-OV-3 ovarian
  GI50: 0.528 µM
  TGI: 2.55 µM
LOX IMVI melanoma
  GI50: 0.347 µM
  TGI: 1.78 µM
OVCAR-8 ovarian
  GI50: 0.0915 µM
  TGI: 1.57 µM

## CNc1ccc(N=Nc2cccc3ncccc23)cc1
CAKI-1 renal
  GI50: 6 µM
  TGI: > 100 µM
T-47D breast
  GI50: 0.0346 µM
  TGI: > 77.1 µM
BT-549 breast
  GI50: 24.4 µM
  TGI: > 100 µM
NCI-H522 lung
  GI50: 43.7 µM
  TGI: > 100 µM
NCI/ADR-RES ovarian
  GI50: 23.3 µM
  TGI: > 100 µM
SF-295 CNS
  GI50: 17.8 µM
  TGI: > 100 µM
SF-539 CNS
  GI50: 63.8 µM
  TGI: > 100 µM
SK-OV-3 ovarian
  GI50: > 73.9 µM
  TGI: > 100 µM
LOX IMVI melanoma
  GI50: 22.3 µM
  TGI: > 100 µM
OVCAR-8 ovarian
  GI50: 98.1 µM
  TGI: > 100 µM

## COc1cccc(C2CC(=O)Nc3cc4c(cc32)CCC4)c1OC (centres undefined)
CAKI-1 renal
  GI50: 3.36 µM
  TGI: 56.2 µM
T-47D breast
  GI50: 5.52 µM
  TGI: 52.3 µM
BT-549 breast
  GI50: 3.57 µM
  TGI: 16.7 µM
NCI-H522 lung
  GI50: 3.67 µM
  TGI: 18.4 µM
NCI/ADR-RES ovarian
  GI50: 2.43 µM
  TGI: 7.14 µM
SF-295 CNS
  GI50: 2.83 µM
  TGI: 12.4 µM
SF-539 CNS
  GI50: 3.03 µM
  TGI: 10.4 µM
SK-OV-3 ovarian
  GI50: 3.73 µM
  TGI: 20 µM
LOX IMVI melanoma
  GI50: 4.26 µM
  TGI: 16.8 µM
OVCAR-8 ovarian
  GI50: 3.67 µM
  TGI: 31.9 µM

## CC(=O)OC1Oc2cc(C)c(C)cc2-c2oc(=O)c(-c3ccccc3)cc21 (centres undefined)
CAKI-1 renal
  GI50: 0.525 µM
  TGI: > 54.1 µM
T-47D breast
  GI50: 0.352 µM
  TGI: > 68.1 µM
BT-549 breast
  GI50: 7.34 µM
  TGI: > 31.9 µM
NCI-H522 lung
  GI50: 0.177 µM
  TGI: 4.81 µM
NCI/ADR-RES ovarian
  GI50: 0.213 µM
  TGI: 0.908 µM
SF-295 CNS
  GI50: 0.448 µM
  TGI: > 34.9 µM
SF-539 CNS
  GI50: 0.232 µM
  TGI: 0.762 µM
SK-OV-3 ovarian
  GI50: 0.407 µM
  TGI: 37.3 µM
LOX IMVI melanoma
  GI50: 1.47 µM
  TGI: > 100 µM
OVCAR-8 ovarian
  GI50: 0.545 µM
  TGI: > 84.5 µM

## Cc1cc(C(=O)Nc2cc(Nc3ncccc3-c3ncnc4nc[nH]c34)ccc2F)cc(C(C)(C)C#N)c1
CAKI-1 renal
  GI50: 0.951 µM
  TGI: > 100 µM
T-47D breast
  GI50: 2.59 µM
  TGI: > 91.7 µM
BT-549 breast
  GI50: 2.95 µM
  TGI: > 100 µM
NCI-H522 lung
  GI50: 3.54 µM
  TGI: > 100 µM
NCI/ADR-RES ovarian
  GI50: 2.81 µM
  TGI: > 100 µM
SF-295 CNS
  GI50: 4.45 µM
  TGI: > 100 µM
SF-539 CNS
  GI50: 1.19 µM
  TGI: > 63.8 µM
SK-OV-3 ovarian
  GI50: 26 µM
  TGI: > 100 µM
LOX IMVI melanoma
  GI50: 0.0414 µM
  TGI: 0.338 µM
OVCAR-8 ovarian
  GI50: 3.02 µM
  TGI: > 100 µM

## CCCC(=O)Nc1cn(COC)c(C(=O)N2C[C@H]3C[C@@]34C2=CC(=O)c2[nH]cc(C)c24)n1
CAKI-1 renal
  GI50: 5.42 µM
  TGI: 17.3 µM and > 100 µM
T-47D breast
  GI50: 2.91 µM
  TGI: 25.4 µM and 34.8 µM
BT-549 breast
  GI50: 5.51 µM
  TGI: 43.1 µM and 58.9 µM
NCI-H522 lung
  GI50: 1.84 µM
  TGI: 8.62 µM and 14.7 µM
NCI/ADR-RES ovarian
  GI50: 12 µM
  TGI: 15.8 µM and 43.6 µM
SF-295 CNS
  GI50: 5 µM
  TGI: 50 µM and 67.2 µM
SF-539 CNS
  GI50: 1.87 µM
  TGI: 37.7 µM and 38.4 µM
SK-OV-3 ovarian
  GI50: 26.7 µM
  TGI: 50 µM and > 100 µM
LOX IMVI melanoma
  GI50: 3.13 µM
  TGI: 35.4 µM and > 100 µM
OVCAR-8 ovarian
  TGI: 14.6 µM and 20.1 µM

## COc1ccc(-c2nn(-c3cccc(Cl)c3)cc2-c2cc(-c3cccs3)no2)cc1
CAKI-1 renal
  GI50: 2.05 µM
  TGI: 6.02 µM
T-47D breast
  GI50: 3.86 µM
  TGI: 25.3 µM
BT-549 breast
  GI50: 4.99 µM
  TGI: 21.3 µM
NCI-H522 lung
  GI50: 4.27 µM
  TGI: 18.4 µM
NCI/ADR-RES ovarian
  GI50: 4.01 µM
  TGI: 38.1 µM
SF-295 CNS
  GI50: 2.7 µM
  TGI: 13.2 µM
SF-539 CNS
  GI50: 7.47 µM
  TGI: 36.6 µM
SK-OV-3 ovarian
  GI50: 8.89 µM
  TGI: 44.1 µM
LOX IMVI melanoma
  GI50: 3.04 µM
  TGI: 10.9 µM
OVCAR-8 ovarian
  GI50: 4.04 µM
  TGI: 36 µM

## N=C(N)SCC(=O)O
CAKI-1 renal
  TGI: > 100 µM
T-47D breast
  TGI: > 100 µM
BT-549 breast
  TGI: > 100 µM
NCI-H522 lung
  TGI: > 100 µM
NCI/ADR-RES ovarian
  TGI: > 100 µM
SF-295 CNS
  TGI: > 100 µM
SF-539 CNS
  TGI: > 100 µM
SK-OV-3 ovarian
  TGI: > 100 µM
LOX IMVI melanoma
  TGI: > 100 µM
OVCAR-8 ovarian
  TGI: > 100 µM

## COc1cc(/C=C2\C(=O)Nc3ccc(Br)cc32)cc(OC)c1OC
CAKI-1 renal
  GI50: 1.85 µM
  TGI: > 44.1 µM
T-47D breast
  GI50: 3.06 µM
  TGI: > 100 µM
BT-549 breast
  GI50: 1.28 µM
  TGI: 19.3 µM
NCI-H522 lung
  GI50: 3.29 µM
  TGI: > 50.9 µM
NCI/ADR-RES ovarian
  GI50: 4.01 µM
  TGI: 29.4 µM
SF-295 CNS
  GI50: 12 µM
  TGI: 68.9 µM
SF-539 CNS
  GI50: 26.7 µM
  TGI: > 100 µM
SK-OV-3 ovarian
  GI50: 24 µM
  TGI: > 56.1 µM
LOX IMVI melanoma
  GI50: 10.6 µM
  TGI: > 100 µM
OVCAR-8 ovarian
  GI50: 34.3 µM
  TGI: > 100 µM

## Fc1ccc(-c2cc(-c3cn[nH]c3-c3ccccn3)ccn2)cc1
CAKI-1 renal
  GI50: > 25 µM
  TGI: > 25 µM
T-47D breast
  GI50: > 25 µM
  TGI: > 25 µM
BT-549 breast
  GI50: > 25 µM
  TGI: > 25 µM
NCI-H522 lung
  GI50: > 25 µM
  TGI: > 25 µM
NCI/ADR-RES ovarian
  GI50: > 19.5 µM
  TGI: > 25 µM
SF-295 CNS
  GI50: > 25 µM
  TGI: > 25 µM
SF-539 CNS
  GI50: > 25 µM
  TGI: > 25 µM
SK-OV-3 ovarian
  GI50: > 25 µM
  TGI: > 25 µM
LOX IMVI melanoma
  GI50: > 25 µM
  TGI: > 25 µM
OVCAR-8 ovarian
  GI50: > 25 µM
  TGI: > 25 µM
